Reference: a melting point compilation (Tetko et al.)

Row | SMILES | melting point [°C]
1 | O=C(O)/C=C/c1ccc(OCc2cn3ccccc3n2)cc1 | 190 to 192
2 | CC=Cc1ccc(OCC(=O)OC)c(OC)c1 | 68 to 70
3 | CCN(CC)C(=O)N1CCC(C(=O)O)CC1 | 96 to 98
4 | NNC(=O)Cc1cn2ccccc2n1 | 128 to 130
5 | CC(C)(C)OC(=O)NC1(CC(=O)O)CCC1 | 126 to 128
6 | Cc1cc(OCC(=O)O)ccc1C(C)C | 117 to 121
7 | COc1ccc(C(C)=O)c2ccccc12 | 64 to 66
8 | O=S(=O)(Cl)c1c(Cl)ccc2ccccc12 | 65 to 67
9 | COCCOc1ccc(NC(=O)OCC(F)(F)F)cn1 | 86 to 88
10 | N#Cc1ccc(CC(N)=O)cc1 | 191 to 193
11 | Cn1ccnc1-c1cc(N)on1 | 178 to 180
12 | O=C(O)c1cc(S(=O)(=O)N2CCOCC2)c[nH]1 | 264 to 266
13 | NNS(=O)(=O)Cc1ccc([N+](=O)[O-])cc1 | 139 to 141
14 | NS(=O)(=O)c1c(Cl)nc2ccccn12 | 174 to 176
15 | CS(=O)(=O)c1ccc(OCCN)cc1 | 63 to 65
16 | O=C1NC(=O)C(Cc2ccc(O)cc2)N1 (centres undefined) | 267 to 269
17 | N#CCC(=O)CCc1ccccc1 | 69 to 71
18 | CCCCn1nc(C(=O)O)ccc1=O | 119 to 121
19 | COC(=O)c1ccc2n[nH]c(=O)n2c1 | 225 to 227
20 | O=c1[nH]c(-c2ccncc2)no1 | 259 to 261
21 | O=c1[nH]cnc2cc(N3CCOCC3)c([N+](=O)[O-])cc12 | 309 to 311
22 | COC(=O)c1cnc[nH]1 | 154 to 156
23 | Cc1nc(N)oc1C | 64 to 66
24 | Cn1c(NN)nnc1-c1ccccc1 | 147 to 149

Row | SMILES | melting point [°C]
25 | O=C(O)CS(=O)c1ccc([N+](=O)[O-])cc1 (centres undefined) | 178 to 180
26 | CCc1cccc(C)c1NC(=O)CCl | 100 to 110
27 | COc1cccc(NCCC(=O)O)c1 | 87 to 89
28 | O=C(O)C1CCN(c2ccc3nnnn3n2)CC1 | 199 to 201
29 | CS(=O)(=O)Nc1ccc(O)cc1 | 158 to 160
30 | S=C1NC2CCCCC2N1 (centres undefined) | 134 to 136
31 | NCc1noc(-c2ccsc2)n1 | 127 to 129
32 | O=[N+]([O-])c1c(Cl)ccc2scnc12 | 132 to 134
33 | Cc1nn(-c2cccc(Cl)c2)c2sc(C(=O)O)cc12 | 268 to 270
34 | COc1ccc(C(=O)Nc2cccc(C=O)c2)cc1 | 128 to 130
35 | O=C(Nc1ccccc1C(=O)O)c1ccc(Cl)cc1 | 208 to 210
36 | CCCC1CNCCN1 (centres undefined) | 59 to 61
37 | O=c1c2ccc(C(F)(F)F)cc2nc2n1CCC2 | 156 to 158
38 | CC(C)C(Br)C(=O)NC(C)(C)C (centres undefined) | 135 to 137
39 | CC(=O)CC(=O)Nc1cccc(Br)c1 | 108 to 110
40 | O=C(O)CCc1nc2ccccc2[nH]c1=O | 263 to 265
41 | Cc1cccc(-n2c(=O)[nH]c3cc(C(=O)O)ccc3c2=O)c1 | 344 to 346
42 | Nc1nnc(-c2ccc(Cl)cc2)o1 | 260 to 262
43 | O=C(O)CN1CCCOC1=O | 172 to 174
44 | O=C(O)c1n[nH]c2ccc(I)cc12 | 285 to 287
45 | O=C(O)c1cc2c(=O)n3ccccc3nc2n1Cc1ccccc1 | 257 to 259
46 | O=C(O)CCCOc1ccccc1Br | 87 to 89
47 | CCCc1noc2ncc(C(=O)O)cc12 | 174 to 176
48 | O=C1CCc2cc(F)ccc2N1 | 134 to 136

Row | SMILES | melting point [°C]
49 | CC(Cc1nc2ccccc2s1)(C(=O)O)c1ccccc1 (centres undefined) | 193 to 195
50 | Sc1nnc(-c2ccc[nH]2)o1 | 205 to 207
51 | Cc1nccn1-c1ccc(CN)cn1 | 45 to 47
52 | Nc1ccc(C(=O)N2CCCCC2)c(Cl)c1 | 148 to 150
53 | c1cc(-c2ccsc2)n[nH]1 | 110 to 112
54 | O=C(O)c1cnc2scc(-c3ccccc3)n2c1=O | 244 to 246
55 | Cc1sc2ccccc2c1S(=O)(=O)Cl | 117 to 119
56 | COC(=O)C1CCN(c2ccnc(C#N)c2)CC1 | 104 to 106
57 | O=c1ccc(S(=O)(=O)c2ccccc2)n[nH]1 | 182 to 184
58 | Nc1ccc(-c2cccc(C(F)(F)F)c2)cc1 | 65 to 67
59 | CN(c1ccccc1)S(=O)(=O)c1cccc(NC(=O)CCl)c1 | 98 to 100
60 | NNC(=O)c1csc(N2CCOCC2)n1 | 168 to 170
61 | CC1(C)Cc2ccccc2C1=O | 41 to 43
62 | CCOC(=O)c1nc2cc(Cl)ncn2n1 | 194 to 196
63 | O=Cc1nc(-c2ccccc2)cs1 | 61 to 63
64 | Cc1cc(C(=O)O)c2cc(Br)ccc2n1 | 259 to 261
65 | O=C(O)c1ccc([N+](=O)[O-])c(Br)n1 | 179 to 181
66 | CC(C)(C)S(=O)Cc1cccc(N)c1 (centres undefined) | 121 to 123
67 | COc1cccc(CN2C(=O)NC(=O)C2=O)c1 | 139 to 141
68 | O=C(O)c1cc(S(=O)(=O)N2CCOCC2)ccc1Cl | 183 to 185
69 | O=C1CNC2CCCCC2N1 (centres undefined) | 121 to 123
70 | Cc1nn(-c2ncc(C(F)(F)F)cc2Cl)c(C(F)(F)F)c1C(=O)O | 167 to 169
71 | C=CCN1C(=O)C(=NN)c2ccccc21 | 129 to 132
72 | Cc1csc(SCc2c(C(=O)O)oc3ccccc23)n1 | 177 to 179

Row | SMILES | melting point [°C]
73 | O=C1NCCNC1(O)C(F)(F)F (centres undefined) | 144 to 146
74 | Cc1cc2cn[nH]c2cc1N | 219 to 221
75 | CN1CCN(C(=O)Cc2cccc(N)c2)CC1 | 138 to 140
76 | COC(=O)c1cccc(NC(=O)CC(C)=O)c1 | 75 to 77
77 | O=C(O)CCC(=O)c1cc(Cl)sc1Cl | 117 to 119
78 | CC(NC(=O)OC(C)(C)C)c1ccc(CN)cc1 (centres undefined) | 78 to 80
79 | CCOC(=O)Nc1cccc(C(=O)O)c1 | 196 to 198
80 | Cc1cccc2c(=O)[nH]c(CC#N)nc12 | 233 to 235
81 | CCNc1ccc(C#N)c(Cl)c1 | 69 to 71
82 | Cc1cc(F)ccc1-c1ccc(C(=O)O)cc1F | 189 to 191
83 | Nc1nnc(CC(F)(F)F)o1 | 132 to 134
84 | C=CCSc1nnc(N)s1 | 119 to 121
85 | NS(=O)(=O)c1cc(Br)ccc1Br | 199 to 201
86 | CC(C)(C)NC(=O)NCCCl | 104 to 106
87 | NC1=NC(=O)c2ccccc21 | 208 to 210
88 | O=C(NCC(F)(F)F)OCC(F)(F)F | 53 to 55
89 | Nc1cc(Br)cc(Cl)c1O | 79 to 81
90 | CC(C)(C)n1[nH]c(-c2ccccc2)cc1=N | 103 to 105
91 | CC1(c2ccc(F)cc2Cl)NC(=O)NC1=O (centres undefined) | 214 to 216
92 | COC(=O)CCOc1ccc(N)cc1 | 51 to 53
93 | Cc1ccc(Br)c2cccnc12 | 34 to 36
94 | O=C(O)c1c(-n2cccc2)sc2c1CCSC2 | 169 to 171
95 | Cc1ccc(Nc2nnc(S)s2)cc1C | 181 to 183
96 | NCc1cnn(-c2cccc(Cl)c2)c1 | 88 to 90

Row | SMILES | melting point [°C]
97 | Cc1nn(-c2ccc(Cl)cc2)c2sc(C(=O)O)cc12 | 230 to 238
98 | Cc1cc(C)n2nc(N)nc2n1 | 369 to 371
99 | CN(C)Cc1nc(Cl)c2c(-c3ccccc3)csc2n1 | 114 to 116
100 | Cn1ccnc1C(O)(CC(=O)O)C(F)(F)F (centres undefined) | 186 to 188
101 | COc1ccc(NCCCC(=O)O)cc1 | 204 to 206
102 | N#Cc1cccc(Cn2ccnc2)c1 | 65 to 67
103 | CCOC(=O)c1cnc2c(OC)cc(Cl)c(OC)c2c1Cl | 152 to 154
104 | Nc1cccc(-c2n[nH]c3c2CCCC3)c1 | 159 to 161
105 | O=C(O)C1CCCN(c2nc3ccccc3s2)C1 (centres undefined) | 166 to 168
106 | O=C(O)CCNS(=O)(=O)C=Cc1ccccc1 | 119 to 123
107 | Cn1cc(S(=O)(=O)NCC(=O)O)cn1 | 201 to 203
108 | CC(O)c1nc2ccccc2n1C(F)F (centres undefined) | 96 to 98
109 | O=C(O)CC(C(=O)O)c1ccccc1F (centres undefined) | 169 to 171
110 | O=C(Nc1cccc(C(=O)O)c1)NC1CC1 | 236 to 238
111 | Fc1ccccc1CNc1ccncc1 | 83 to 85
112 | O=S(=O)(Cl)c1sc(Cl)nc1Cl | 57 to 59
113 | Cc1nn(C)c(=O)c(C(=O)N2CSCC2C(=O)O)c1C (centres undefined) | 209 to 211
114 | CN1CCN(S(=O)(=O)c2ccc(Cl)c(N)c2)CC1 | 103 to 107
115 | CN(C)S(=O)(=O)c1cc(Br)cnc1N | 173 to 175
116 | CC(=O)Nc1ncc(-c2ccc(O)cc2)s1 | 218 to 220
117 | Cc1nc([N+](=O)[O-])cn1CCC(=O)O | 217 to 219
118 | COc1ccccc1NC(=O)c1ccc(NC(=O)C(C)Cl)cc1 (centres undefined) | 149 to 151
119 | Cc1ccc(S(=O)(=O)Cl)c(Br)c1 | 70 to 72
120 | Nc1nnc(CCCc2cccs2)o1 | 149 to 151

Row | SMILES | melting point [°C]
121 | CCCc1noc2nc(-c3cccnc3)cc(C(=O)O)c12 | 259 to 261
122 | CCn1cc(Br)cc1C(=O)O | 148 to 150
123 | Cc1cccc(C(=O)Nc2ccccc2C(=O)O)c1 | 182 to 186
124 | O=C(O)CCNS(=O)(=O)c1cccc(C(F)(F)F)c1 | 113 to 115
125 | O=C(O)c1cccnc1Sc1ccc2c(c1)OCCO2 | 228 to 230
126 | COC(=O)CCNc1ccc(C)cc1 | 59 to 61
127 | CCOC(=O)c1cnn2c1nc(Cl)c1ccccc12 | 129 to 131
128 | O=C(O)c1csc(-c2ccccc2)c1 | 184 to 186
129 | O=C(O)CCSc1ccc(F)cc1 | 76 to 78
130 | Nc1nc2cc(F)c(F)cc2s1 | 171 to 173
131 | Cc1ccc(N2C(=O)CSC2=S)cc1 | 168 to 170
132 | Clc1ccnc2[nH]ccc12 | 176 to 181
133 | CC(=O)c1sc(NCCCC(=O)O)nc1C | 140 to 142
134 | Cc1cc2n(n1)C(=O)CC(=O)N2 | 219 to 221
135 | NCc1nc2ccccc2s1 | 199 to 201
136 | Nc1ccc(Cl)c(-c2nnc3n2CCCCC3)c1 | 284 to 286
137 | CCC(C)NC(=O)c1ccc(N)c(C)c1 (centres undefined) | 123 to 125
138 | N#CCC(=O)N1CCSCC1 | 103 to 105
139 | Oc1cccc(CNC2CCC(O)CC2)c1 (centres undefined) | 180 to 182
140 | CC(NC(=O)c1ccc2[nH]ncc2c1)C(=O)O (centres undefined) | 229 to 231
141 | Cc1c(C(=O)O)oc2c(F)cc(F)cc12 | 339 to 341
142 | Cc1ccc(C2CC2C(=O)O)cc1C (centres undefined) | 97 to 99
143 | Cc1cc(S(=O)(=O)Cl)sc1Br | 35 to 37
144 | NNC(=O)Cc1ccc2ccccc2c1 | 189 to 191
